The values that follow come from patent publication US20210130291A1, “METHODS FOR TREATING DIABETES USING VDAC1 INHIBITORS” (THE NATIONAL INSTITUTE FOR BIOTECHNOLOGY IN THE NEGEV LTD., priority 2016, published 2021).

Assay [1] has as its target T1, plasma membrane targeted VDAC1 (plVDAC1) (Mus musculus, UniProt Q60932).
T1 construct: expressed in transfected cells; host or cells: INS-1 832/13 cells (rat insulinoma), transient transfection; plasmid a gift from Dr. R. Buettner
The assay can be described thus: ATP release and ATP content of INS-1 cells transfected with plasma membrane targeted VDAC1. In kind it is cell-based. The note with it: plVDAC1-transfected INS-1 cells, 1 h at 1 mM glucose; for ATP release (loss of cellular ATP): VDAC1-ab 10 nM, metformin, AKOS, VBIT-4 20 μM each (FIG. 4c). The procedure: (§1) ATP release from isolated mouse or human islets or from INS-1 cells after transfection with mitochondrial targeted VDAC1 (mtVDAC1) or plasma membrane targeted VDAC1 (plVDAC1) plasmids was determined using a luminometric assay kit according to manufacturer's recommendation (Biovision). After incubation of islets (50/vial) or INS-1 cells for 60 min, an aliquot of the media was removed for subsequent measurements of released ATP. Then the islets or INS-1 cells were washed 3 times and the lysates were used for measurements of ATP and protein contents followed the protocol provided by the vendor.
INS-1 cells were transiently transfected with a plasmid encoding plasma membrane targeted VDAC1 (pVDAC1) as described in the Material and Method section herein above and in Example 3 (see also Buettner et al 2000. PNAS 97:3201-3206). After transfection (24-32 h and 2-4 h recovery in normal culture medium, RPMI 1640 with complete supplement) the INS-1 cells were washed followed by preincubation in SAB-buffer (See Material and Method above) containing 2.8 mM glucose. The final 1 h incubation was performed in SAB-buffer containing 1 mM glucose and the VDAC1 inhibitory compounds to be tested. At the end, the cells were lysed using lysis buffer, sonicated and the lysate as well as the incubation medium were analyzed for ATP content using a commercially available kit (Biovision, K354-100). Cellular protein content was analyzed by Pierce™ BCA protein assay kit (Thermo Scientific, USA).

The next assay relates to islets of C57/BL mice. The assay is described as follows: ATP content and GSIS in islets of control C57/BL mice. Type of assay: cell-based, mouse. To be noted: VDAC1 antibody 10 nM; for GSIS: others 20 μM (FIG. 7e); for ATP content: others 20 μM (FIG. 7d). The procedure:
5 weeks old db/db mice and control (C57/bl) (Janvier Laboratory, France), weighing 18-25 g, were used throughout the experiments. They were given a standard pellet diet (B&K) and tap water ad libitum. The experimental procedures were approved by the Ethics Committee for Animal Research at Lund University. Isolation of pancreatic islets was performed by retrograde injection of a collagenase solution via the bile-pancreatic duct and islets were then collected under a stereomicroscope at room temperature.
Human pancreatic islets were collected under a stereomicroscope at room temperature and cultured at 5.5 or 20 mM glucose in the absence or presence of test agents for 72 h. Thereafter the islets were washed and preincubated for 30 min at 37° C. in Krebs Ringer bicarbonate buffer, pH 7.4, supplemented with N-2 hydroxyethylpiperazine-N′-2-ethanesulfonic acid (10 mM), 0.1% bovine serum albumin, and 1 mM glucose. Each incubation vial contained 12 islets in 1.0 ml KRB buffer solution and treated with 95% O2 and 5% CO2 to obtain constant pH and oxygenation. After preincubation, the buffer was changed to a medium containing either 1 mM or 16.7 mM glucose. The islets were then incubated for 1 h at 37° C. in a metabolic shaker (30 cycles per min). Immediately after incubation an aliquot of the medium was removed for analysis of insulin and the islets were incubated in acid-ethanol for insulin content determination by radioimmunoassay.
as §1

For assay [2], the system named is VDAC1 expression in INS-1 cells. The assay can be described thus: VDAC1 expression in INS-1 cells cultured at 5 or 20 mM glucose. To be noted: INS-1 cells cultured 72 h at 20 mM glucose; VDAC1ab 10 nM, metformin, AKOS, VBIT-4 20 μM each (FIG. 4l, 4m). Type of assay: cell-based, rat. As to the method: INS-1 832/13 cells (kindly donated by Dr. C. B. Newgaard, Duke University, USA) were cultured in RPMI-1640 containing 11.1 mM D-glucose and supplemented with 10% fetal bovine serum, 100 U/ml penicillin (Gibco), 100 µg/ml streptomycin (Gibco), 10 mM HEPES, 2 mM glutamine, 1 mM sodium pyruvate, and 50 µM β-mercaptoethanol (Sigma), at 37° C. in a humidified atmosphere containing 95% air and 5% CO2. For VDAC1 over-expression by VDAC1 plasmid (1 μg/ml) and VDAC2 down-regulation by and siRNA, INS1 832/13 cells were cultured to 60% confluence. To study the long-term effects (24-72 h) of high glucose (20 mM) (glucotoxicity) compared to basal glucose (5 mM), INS-1 832/13 cells were cultured with RPMI 1640 complete media (Ahmed, M., et al., 2010. Islets 2, 283-292) in the presence or absence of indicated agents and thereafter VDAC1 expression, cell viability and function was measured.
Total RNA from handpicked mouse islets, human donor islets (Diabetic and non-diabetic) or INS1 832/13 cells were extracted using RNAeasy (Qiagen, Hilden, Germany). RNA ([…]) was used for cDNA synthesis with SuperScript (Invitrogen, Carlsbad, Calif., USA). Concentration and purity of total RNA was measured with a NanoDrop ND-1000 spectrophotometer (A260/A280>1.9 and A260/A230>1.4) (NanoDrop Technologies, Wilmington, Del.) and RNA Quality Indicator (RQI) higher than 8.0 (Experion Automated Electrophoresis, Bio-Rad, USA) was considered to be high-quality total RNA preparations. A 10 μl of reaction mixture with 20 ng cDNA, 5 μl TaqMan mastermix (Applied Biosystems, Foster City, Calif., USA), and 100 nM TagMan gene expression assay were run in a 7900HT Fast Real-Time System (Applied Biosystems). The qPCR was carried out as follows: 50° C. for 2 minutes, 95° C. for 10 minutes, 40 cycles of 95° C. for 15 seconds, and 60° C. for 1 minute. The amount of mRNA was calculated relative to the amount of housekeeping genes (GAPDH, PPIA or HPRT) mRNA in the same sample by the formula X0/R0=2CtR-CtX, where X0 is the original amount of mRNA for the gene of interest, R0 is the original amount of HPRT mRNA, CtR the Ct value for HPRT, and CtX the Ct value for the gene of interest. Primer sequences are provided upon request.

“Also recorded” adds a separate entry of the source.

T1 sequence (Q60932 whole entry): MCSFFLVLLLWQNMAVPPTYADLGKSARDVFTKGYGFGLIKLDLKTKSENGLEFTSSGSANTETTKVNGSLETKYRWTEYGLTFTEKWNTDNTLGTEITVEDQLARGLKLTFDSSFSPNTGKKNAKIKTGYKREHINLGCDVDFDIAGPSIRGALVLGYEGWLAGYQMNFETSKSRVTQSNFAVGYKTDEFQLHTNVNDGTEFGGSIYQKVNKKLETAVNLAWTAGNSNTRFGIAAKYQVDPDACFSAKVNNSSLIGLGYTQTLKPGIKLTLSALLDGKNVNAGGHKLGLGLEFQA

In the case of `O=C(CC(CO)N1CCN(c2ccc(OC(F)(F)F)cc2)CC1)Nc1ccc(Cl)cc1` (racemic) [VBIT-4, N-(4-chlorophenyl)-4-hydroxy-3-(4-(4-(trifluoromethoxy)phenyl)-piperazin-1-yl)butanamide], the ATP release result in assay [1] (racemate and enantiomers (FIG. 9a), listed as racemic VBIT-4) was “efficiently inhibit ATP release; also recorded: no discernible difference”. In assay [1] (racemate and enantiomers (FIG. 9b), listed as racemic VBIT-4), the “cellular ATP content” value was “increase cellular ATP content; also recorded: intermediate between that of its enantiomers 1 and 2”. The “ATP release (loss of cellular ATP)” value in assay [1] was “prevented; also recorded: rapidly inhibited”. Moreover, in the assay with islets of C57/BL mice, the GSIS entry was “do not affect” and the ATP content result was “do not affect”. Besides, the “glucose evoked VDAC1 upregulation (total VDAC1 expression)” value in assay [2] was “abrogated the glucose evoked VDAC1 upregulation”.

For the compound `CN(C)C(=N)N=C(N)N` [metformin], in assay [1], the “ATP release (loss of cellular ATP)” value is listed as “prevented; also recorded: rapidly inhibited”. Further, in the assay with islets of C57/BL mice, the GSIS result is “do not affect” and the ATP content entry is reported as “do not affect”. Further, in assay [2], the “glucose evoked VDAC1 upregulation (total VDAC1 expression)” value was “abrogated the glucose evoked VDAC1 upregulation”.
